This note sets out measurements from patent publication US20210236678A1, “HOUSEHOLD PRODUCT DELIVERING WARMING AND/OR TINGLING SENSATIONS” (TAKASAGO INTERNATIONAL CORPORATION, priority 2016, published 2021).

Experiment [1] relates to warming perception in the nose. The experiment can be described thus: Perception test for warming agents (panel smells samples; rating and ranking). Format: in vivo. The settings on record: panel of 20 subjects; for Mean rank (less warming = rank 1, more warming = rank 4) / Nemenyi multiple comparison test of warming ranking vs reference capsaicin: 1% in TEC; for Mean rank (less warming = rank 1, more warming = rank 4) / warming perception in the nose (rating), compared to the reference capsaicin: smelled; for warming perception in the nose (rating), compared to the reference capsaicin: 1% in Triethyl Citrate (TEC), scale 0 to 100, ANOVA and Student's t-test.

The next experiment has as its target T1, human TRPA1 (Homo sapiens, UniProt O75762).
T1 construct: expressed in transfected cells; host or cells: HEK-293
The experiment can be described thus: Screening on receptors TRPA1 (Fluo-8 calcium fluorescence, FLIPR, HEK-293 cells). The settings on record: for pEC50: HEK-293 cells stably transfected with human TRPA1, agonist, normalised to spilanthol EC100, elemi oil molarity assumes molecular weight of elemol; for agonist activity on TRPA1 compared to spilanthol (reference): HEK-293 cells with human TRPA1. Format: cell-based. The method, then:
The following are the test protocols used in determining whether fragrance ingredients show a response on the TRPA1 and TRPV1 receptors which are associated with tingling and warming sensations respectively. In all cases, the reaction is measured by fluorescence imaging using high throughput screening equipment.
Method for Screening on Receptors TRPA1:
HEK-293 (Human Embryonic Kidney) cells stably transfected with human TRPA1 were grown in a culture medium of EMEM (medium Essential Medium Eagle with Earl's salts balanced salt solution (Lonza catalogue No BE12-125F), 5 mL of 200 mM Ultraglutamine 1 (Lonza Catalogue No BE17-605E/U1), 5 mL of 100× Penicillin/Streptomycin (Lonza Catalogue No DE17-602E) 50 mL of Fetal bovine serum (Euroclone Cat No ECS0180L) 2 mL of 100 mg/mL Genticin sulphate (G418 sulphate InvivoGen CatAnt-gn-5).
10,000 cells/well were seeded in a 384 MTP in complete medium. Then, after 24 hours, the culture medium was manually removed. The cells were loaded with 20 μL/well of 0.5× Fluo-8 NW dye in standard Tyrode's buffer (Screen Quest™ Fluo-8 No wash Calcium assay kit supplied by AAT Bioquest catalogue No 26316). The plate was incubated for 1 hour at room temperature in the dark. 10 μL/well of test chemaesthetic agents were injected and controlled with the FLIPR^TETRA (Molecular Devices). The emitted fluorescence signal at 520 nm was recorded for 3 minutes. The compound multiwall plate contained the samples at 8 different doses in quadruplicate data points. Dose response of the samples were performed starting from 100 mM concentration in 100% DMSO with a serial dilution of 1:2 and then diluted in assay buffer at the final concentration of 100 μM, 50 μM, 25 μM, 12.5 μM, 6 μM, 3 μM, 1.5 μM, and 0.7 μM.
In the compound plate were also present a dose response of the reference agonist at 8 concentrations and in duplicate. Spilanthol was the reference agonist for TRPA1 in this study. These reference controls dosed as 16 wells (duplicates for each concentration) of reference agonist at ECioo corresponded to the MAX signal response (100% activity).
There were also 16 wells of blanks, i.e. assay buffers without either a test sample or reference compound which corresponded to the MIN signal response (0% activity). MAX and MIN controls were used for data analysis (RZ' calculation) and normalization of compound activity.
For data analysis the response value was calculated as the maximum signal of the kinetic trace after the injection minus the median of the points before injection and multiplied by the normalization factor (NF). The normalisation factor was the baseline mean of all wells in the plate divided by the baseline of a specific well.
To calculate the % of activity of the sample the response value was normalized versus MAX signal controls and MIN Signal controls to obtain the activity % according to the following formula: […]
The normalized data in percent activity were then used to perform curve fitting and EC50 calculation corresponding to the concentration that gave 50% of activation of the receptor (within a curve fitting program within the data analysis software).

The subject of experiment [2] is tingling sensation in the nose. Particulars: 3% in Triethyl Citrate (TEC); panel of 80 subjects; scale 0 to +100.
Protocol: Comparison of tingling effect between isopulegol and menthoxypropanediol
A panel of 80 subjects was selected to take part in a comparative test between isopulegol (available as Coolact (registered trademark) P) and menthoxypropanediol (CAS 87061-04-9, available as Coolact (registered trademark) 10).
The samples of isopulegol and menthoxypropanediol were prepared by dilution to 3% in Triethyl Citrate (TEC).
The subjects had to score whether they perceived a tingling sensation in the nose, on a scale of 0 (no sensation) to +100 (extremely tingling).
Experiment [3] has as its system tingling perception in the nose. The experiment can be described thus: Perception test for tingling agents (panel smells samples; rating and ranking). Format: in vivo. The settings on record: panel of 20 subjects, smelled. On the procedure:
The reference spilanthol is contained in jambu and known for its tingling effect on the skin/the tongue (U.S. Pat. No. 9,890,567; J. Paulraj et al., Advances in Pharmacological Sciences, Vol. 2013, Article ID 510298, 22 pages). The samples were prepared as solutions of the pure raw materials at 1% in Triethyl Citrate (TEC), and portions decanted into small jars for testing. In a first part of the evaluation, the subjects of the panel smell the samples one by one and rate them on the following scale: tingling perception in the nose: 0 (not at all) to 100 (very strong sensation). In a second part of the evaluation, the subjects of the panel rank the […] agents from the less tingling agent (rank 1) to the more tingling agents (rank 4). The mean values obtain for the ranking where as follows: […]

A further experiment has as its target T2, human TRPV1 (Homo sapiens, UniProt Q8NER1).
T2 construct: expressed in transfected cells; host or cells: CHO-K1
Nature of the experiment: Screening on receptors TRPV1 (fluorescence imaging, CHO-K1 cells). Format: cell-based. The settings on record: for agonist activity on TRPV1 compared to capsaicin (reference): CHO-K1 cells with human TRPV1.

pEC50: −log10 of the molar value.

T2 sequence (Q8NER1 whole entry): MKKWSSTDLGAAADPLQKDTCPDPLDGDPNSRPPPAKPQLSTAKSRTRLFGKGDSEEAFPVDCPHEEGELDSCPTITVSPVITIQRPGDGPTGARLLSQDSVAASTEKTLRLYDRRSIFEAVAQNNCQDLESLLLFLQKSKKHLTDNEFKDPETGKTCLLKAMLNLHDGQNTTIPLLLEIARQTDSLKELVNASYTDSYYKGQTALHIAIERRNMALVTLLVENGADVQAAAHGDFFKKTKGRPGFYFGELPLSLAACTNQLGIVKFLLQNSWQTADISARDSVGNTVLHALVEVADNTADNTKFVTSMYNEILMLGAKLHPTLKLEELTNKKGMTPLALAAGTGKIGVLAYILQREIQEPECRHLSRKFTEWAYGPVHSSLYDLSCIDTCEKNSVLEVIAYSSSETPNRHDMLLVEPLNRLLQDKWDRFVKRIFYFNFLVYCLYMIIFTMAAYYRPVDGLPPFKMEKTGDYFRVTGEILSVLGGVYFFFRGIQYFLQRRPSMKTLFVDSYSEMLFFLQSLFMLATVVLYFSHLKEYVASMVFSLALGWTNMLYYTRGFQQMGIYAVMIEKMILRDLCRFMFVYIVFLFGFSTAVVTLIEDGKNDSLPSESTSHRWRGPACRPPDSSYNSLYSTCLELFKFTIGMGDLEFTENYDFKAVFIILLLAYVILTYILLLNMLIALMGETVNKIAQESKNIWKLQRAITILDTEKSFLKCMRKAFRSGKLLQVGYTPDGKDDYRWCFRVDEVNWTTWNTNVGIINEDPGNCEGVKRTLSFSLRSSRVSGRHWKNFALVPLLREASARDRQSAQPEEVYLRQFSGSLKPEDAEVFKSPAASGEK
T1 sequence (O75762 whole entry): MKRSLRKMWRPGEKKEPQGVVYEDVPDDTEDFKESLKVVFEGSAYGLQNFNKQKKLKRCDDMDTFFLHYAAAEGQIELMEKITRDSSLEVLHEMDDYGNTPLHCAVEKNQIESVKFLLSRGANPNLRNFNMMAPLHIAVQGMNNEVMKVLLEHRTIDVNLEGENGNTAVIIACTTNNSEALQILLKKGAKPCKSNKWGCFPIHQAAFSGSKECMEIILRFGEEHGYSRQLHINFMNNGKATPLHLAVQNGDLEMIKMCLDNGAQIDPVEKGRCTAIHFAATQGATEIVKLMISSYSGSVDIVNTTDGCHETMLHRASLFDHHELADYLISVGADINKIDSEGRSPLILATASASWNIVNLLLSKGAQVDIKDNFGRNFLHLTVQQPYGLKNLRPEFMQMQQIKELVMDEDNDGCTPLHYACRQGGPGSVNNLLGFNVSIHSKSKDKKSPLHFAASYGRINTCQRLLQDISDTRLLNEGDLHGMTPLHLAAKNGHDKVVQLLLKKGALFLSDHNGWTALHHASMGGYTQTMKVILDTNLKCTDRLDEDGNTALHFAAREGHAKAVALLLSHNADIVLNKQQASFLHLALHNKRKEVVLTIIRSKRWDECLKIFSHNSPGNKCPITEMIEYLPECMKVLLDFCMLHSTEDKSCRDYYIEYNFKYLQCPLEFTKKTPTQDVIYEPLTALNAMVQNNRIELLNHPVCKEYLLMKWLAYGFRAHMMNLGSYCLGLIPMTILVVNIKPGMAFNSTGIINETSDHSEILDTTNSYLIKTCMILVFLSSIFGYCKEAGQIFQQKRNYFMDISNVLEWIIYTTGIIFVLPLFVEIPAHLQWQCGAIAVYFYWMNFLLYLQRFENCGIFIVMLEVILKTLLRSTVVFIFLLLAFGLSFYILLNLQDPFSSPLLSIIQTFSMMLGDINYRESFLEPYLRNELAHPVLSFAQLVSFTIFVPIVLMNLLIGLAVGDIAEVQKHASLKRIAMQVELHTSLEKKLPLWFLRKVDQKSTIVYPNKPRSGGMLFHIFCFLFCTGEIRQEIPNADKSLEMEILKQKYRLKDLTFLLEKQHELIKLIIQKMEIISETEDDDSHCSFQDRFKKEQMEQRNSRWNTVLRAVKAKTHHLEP

In the case of `COc1cc(CNC(=O)CCCC/C=C/C(C)C)ccc1O` [capsaicin, reference compound], the “Mean rank (less warming = rank 1, more warming = rank 4)” value in experiment [1] was 1.650.

As for `C=C(C)[C@@H]1CC[C@@H](C)C[C@H]1O` [isopulegol], on human TRPA1, the pEC50 was 4.24 and the “agonist activity on TRPA1 compared to spilanthol (reference)” value is given as “comparable agonists for TRPA1”. In experiment [2], the “tingling sensation in the nose, isopulegol compared with menthoxypropanediol” value is on record as “improved tingling perception”.

As for `CC(C)[C@@H]1CC[C@@H](C)C[C@H]1OCC(O)CO` (stereo partly shown) [menthoxypropanediol], on human TRPA1, the pEC50 is 3.70 and the “agonist activity on TRPA1 compared to spilanthol (reference)” value is “comparable agonists for TRPA1”. Also, the “tingling sensation in the nose, isopulegol compared with menthoxypropanediol” value in experiment [2] is “lower tingling sensation”.

In the case of `C/C=C/C=C\CC/C=C/C(=O)NCC(C)C` [spilanthol], the “Mean rank (less tingling = rank 1, more tingling = rank 4)” value in experiment [3] (1% in TEC) was found to be 1.150. Moreover, the “tingling perception in the nose (rating), compared to the reference spilanthol” value in experiment [3] (1% in Triethyl Citrate (TEC), scale 0 to 100, ANOVA and Student's t-test) is “little effect at all”. Moreover, the pEC50 at human TRPA1 is 4.45.

For the compound `CCCCOCc1ccc(O)c(OC)c1` [vanillyl butyl ether], in experiment [1], the “Nemenyi multiple comparison test of warming ranking vs reference capsaicin” value was “significantly more warming”; the “Mean rank (less warming = rank 1, more warming = rank 4)” value was 2.925; the “warming perception in the nose (rating), compared to the reference capsaicin” value was “improved warming perception”. On human TRPV1, the pEC50 was 5.12 and the “agonist activity on TRPV1 compared to capsaicin (reference)” value is recorded as “weaker agonists for TRPV1 than capsaicin”.

With `CCOCc1ccc(O)c(OC)c1` [vanillyl ethyl ether], in experiment [1], the “Nemenyi multiple comparison test of warming ranking vs reference capsaicin” value was “significantly more warming”; the “Mean rank (less warming = rank 1, more warming = rank 4)” value is recorded as 2.450; the “warming perception in the nose (rating), compared to the reference capsaicin” value is given as “improved warming perception”. Also, the “agonist activity on TRPV1 compared to capsaicin (reference)” value at human TRPV1 was “weaker agonists for TRPV1 than capsaicin”.
